Laboratory results reported in patent EP2364976B1, “S1P receptor modulating compounds and use thereof” (EPIX Pharmaceuticals, Inc., priority 2007, dated 2007).
“And” between values parts separate entries of the source, which are not always exact repeats. Equal entries are not always repeated. Structures can show the parent of a compound that is named as a salt.

What follows are compounds tested against T1, hS1P1 (Homo sapiens, UniProt P21453) (assay: hS1P1 EC50 (S1P receptor Ca2+ flux protocol, FLIPR, CHO K1 Gqi5 cells)). Conditions: several values per compound = repeat determinations as printed.
T1 construct: expressed in transfected cells
Assay type: cell-based
Experimental: S1P receptor activity may also be measured by an SIP receptor (e.g., hS1P1, hS1P3, rS1P1, rS1P3 and parental cell) Ca^2+ Flux protocol as described below: • 1. Material • a. FLIPR buffer: 1x HBSS; 10mM HEPES • b. Cell growth media: • i. human and rat S1P1 and S1P3: F12-Ham's media; 10% FBS (qualified); 1x Pen/Strep/Glu; 300ug/mL Hygromycin; 400ug/mL Geneticin ii. Parental cell: human and rat S1P and S1P3: F12-Ham's media; 10% FBS (qualified); 1x Pen/Strep/Glu; 300ug/mL Hygromycin; • c. Cell seeding media; F12-Ham's media; 10% FBS (Charcoal/dextran stripped); 1x Pen/Strep/Glu; • d. Cell dissociation buffer: Versene from Invitrogen • e. Agonist (SIP) dissolving buffer: 0.4% (w/v) fatty-acid free BSA (Sigma # A8806) in FLIPR buffer • f. FLIPR dye: BD PBX Calcium assay kit; Cat#641077 is composed of Calcium indicator (Cat#850000) and 100x PBX signal enhancer (cat#850001). The 100x PBX signal enhancer is diluted into FLIPR buffer 1:100 and the calcium indicator is then added at 1:1000 ratio. • g. Cell plates (96-well): Greiner Cat#655090 • h. Compound plates (96-well): Costar #3365 • i. S1P stock solution preparation: S1P is purchased from CalBioChem (Catalog # 970471; 1mg vial; custom prep using methanol, & nitrogen gas drying inside glass vial; Storage @ -20°C). Dissolve 1 vial of SIP into 26.4ml of agonist dissolving buffer in a 50ml centrifuge tube; Remove label from bottle of SIP, open and drop entire bottle into tube. Sonicate at 37° for ½ hour. Clear solution of 100µM will result. This stock solution is aliquoted and stored at -80C • 2. Cell line maintenance • a. V5 tags were added at the N-terminus of hS1P1, hS1P3, rS1P1 and rS1P3. All four genes were transfected into CHO K1 cells which stably express Gqi5. • b. hS1P1 and hS1P3 were established as stable clones and rS1P1 and rS1P3 were sorted by anti V5 tag and established as stable pools after sorting. • c. Parental cell line CHO/K1 Gqi5 is used as the control. • d. All the cells are maintained in cell growth media and splitted twice a week using Versene. • e. All the cell lines are used under passage 30. • 3. Assay protocol • a. Cell seeding: Cells are lifted from the flask by Versene and seeded in cell plates at 50K/well in cell seeding media. Cells are grown overnight at 37 degree. • b. Cell loading: Cell seeding media is discarded. Cells are loaded with 50ul of FLIPR dye at RT for 90 min. Signal is stable for up to 5 h after dye loading. • c. Agonist (S1P) preparation: Frozen stock of S1P is thawed out and sonicated at 37c for 30 minutes every time before use. The stock is then diluted into FLIPR buffer at proper concentration. • d. Compound preparation: Compounds are dissolved in DMSO. A 3x, 10 point dilution of the compounds are carried out in DMSO. Then the compounds are diluted into assay buffer133x so that the DMSO concentration is 0.75%. • e. Activity measurement: The fluorescence signal change of the cells upon compound addition is monitored in FLIPRtetra. 25ul of compound is transferred into the cell plates (50ul of FLIPR dye; DMSO concentration: 0.25%). Signal is recorded for 90sec after compound addition. Then 50ul of 500nM SIP is added in the cell plate, and signal is recorded for 90 seconds upon addition. • 4. Data analysis • a. Peak value is calculated for each compound/S1P addition • b. The peak value of S1P at 200nM is used as high control (100%), and the peak value of buffer only is used as low control (0%). • c. Data is normalized against high and low controls using the following equation: POC_S = 100*(RAW-LO)/(HI-LO) [formula] • d. Peak value is plotted against the concentration of compound. • e. Curve is fitted using the 4 parameter fit: Y = (A+(B/(1+(((x/C))^(∧)D)))) [formula] where: Y is POC_S (or POC) • X is compound concentration • A is the minimum (EC50min or IC50min) • B is the maxmum (EC50max or IC50max) • C is the inflection point (EC50IP or IC50IP) • D is the hill slope (EC50 slope or IC50 slope).

T1 sequence (P21453 whole entry): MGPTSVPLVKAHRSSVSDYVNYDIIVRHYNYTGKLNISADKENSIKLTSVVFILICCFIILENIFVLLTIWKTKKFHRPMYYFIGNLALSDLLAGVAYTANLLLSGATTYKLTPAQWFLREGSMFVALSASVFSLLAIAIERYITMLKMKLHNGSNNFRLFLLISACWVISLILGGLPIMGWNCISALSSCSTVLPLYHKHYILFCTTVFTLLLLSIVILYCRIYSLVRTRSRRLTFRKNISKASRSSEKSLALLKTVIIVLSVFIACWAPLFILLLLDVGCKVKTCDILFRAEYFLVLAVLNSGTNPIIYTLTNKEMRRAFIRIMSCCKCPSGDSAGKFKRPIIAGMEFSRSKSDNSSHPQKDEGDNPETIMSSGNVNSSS

Point of comparison: O=C(O)C1CN(Cc2ccc(-c3cc4cc(-c5ccccc5)ccc4o3)cc2)C1 [Reference Compound 1, 1-(4-(5-Phenylbenzofuran-2-yl)benzyl)azetidine-3-carboxylic acid], EC50 1200 nM. Against it:
- O=C(O)C1CN(Cc2ccc(-c3cc4cc(C(=NO)c5ccccc5)ccc4o3)c(F)c2)C1 (mixture of isomers) [Reference Compound 103, (E/Z)-1-((3-Fluoro-4-(5-((hydroxyimino)(phenyl)methyl)benzofuran-2-yl)phenyl)methyl)azetidine-3-carboxylic acid] — 75-fold lower, 16 nM
- O=C(O)C1CCN(Cc2ccc(-c3cc4cc(Cc5ccccc5)ccc4o3)c(F)c2)C1 (racemic) [Reference Compound 41] — 3.8-fold lower, 315 nM
- O=C(O)C1CN(Cc2ccc(-c3cc4cc(Cc5ccccc5)cnc4o3)c(F)c2)C1 [Inventive Compound 98, 1-((3-Fluoro-4-(5-(phenylmethyl)furo[2,3-b]pyridin-2-yl)phenyl)methyl)-3-azetidinecarboxylic acid] — 44-fold lower, 27 nM
- O=C(O)C1CN(Cc2ccc(-c3nc4cc(Cc5ccccc5)ccc4s3)c(F)c2)C1 [Inventive Compound 114, 1-((4-(5-Benzylbenzo[d]thiazol-2-yl)-3-fluorophenyl)methyl)azetidine-3-carboxylic acid] — 41-fold lower, 29 nM
- O=C(O)C1CN(Cc2ccc(-c3nc4cc(Sc5ccccc5)ccc4o3)c(F)c2)C1 [Inventive Compound 117, 1-((3-Fluoro-4-(5-(phenylthio)benzo[d]oxazol-2-yl)phenyl)methyl)azetidine-3-carboxylic acid] — 400-fold lower, 3 nM
- O=C(O)C1CN(Cc2ccc(-c3cn4ccc(Cc5ccccc5)cc4n3)c(F)c2)C1 [Inventive Compound 119, 1-(4-(7-Benzyl-1H-imidazo[1,2-a]pyridin-2-yl)-3-fluorobenzyl)azetidine-3-carboxylic acid, trifluoroacetic acid salt] — 22-fold lower, 54 nM
- CCCCOc1ccc2oc(-c3ccc(CN4CC(C(=O)O)C4)cc3)cc2c1 [Reference Compound 3] — 2.3-fold lower, 520 nM
- O=C(O)C1CCN(Cc2ccc(-c3cc4cc(C5CCCCC5)ccc4o3)cc2)CC1 [Reference Compound 7, 1-(4-(5-cyclohexylbenzofuran-2-yl)benzyl)piperidine-4-carboxylic acid] — within 1.5-fold, 1600 nM
- CCCCc1ccc2oc(-c3ccc(CN4CCC(C(=O)O)CC4)cc3)cc2c1 [Reference Compound 8, 1-((4-(5-Butylbenzofuran-2yl)phenyl)methyl)pineridine-4-carbocylic acid] — 2.6-fold higher, 3100 nM
- O=C(O)C1CCN(Cc2ccc(-c3cc4cc(Cc5ccccc5)ccc4o3)cc2)CC1 [Reference Compound 9, 1-(4-(5-Benzylbenzofuran-2-yl)phenyl)methyl piperldine4-carboxylic acid] — 4-fold higher, 4800 nM
- O=C(O)C1CN(Cc2ccc(-c3cc4cc(CCc5ccccc5)ccc4o3)cc2)C1 [Reference Compound 11, 1-((4-(5-phenethylbenzofaran-2-yl)phenyl)methyl)azetidine-3-carboxylic acid] — 2.1-fold lower, 580 nM

For CCCCc1ccc2oc(-c3ccc(CN4CC(C(=O)O)C4)cc3)cc2c1 [Reference Compound 2, 1-((4-(5-Butylbenzofuran-2-yl)phenyl)methyl)azetidine-3-carboxylic acid], the EC50 was 200 nM and 510 nM and 867 nM.
For O=C(O)C1CN(Cc2ccc(-c3cc4cc(Cc5ccccc5)ccc4o3)cc2)C1 [Reference Compound 4, 1-((4-(5-Benzylbenzofuran-2-yl)phenyl)methyl)azetidine-3-carboxylic acid], the EC50 was 400 nM and 460 nM and 420 nM and 107 nM.
In the case of O=C(O)C1CN(Cc2ccc(-c3cc4cc(C5CCCCC5)ccc4o3)cc2)C1 [Reference Compound 6, 1-(4-(5-cyclohexylbenzofuran-2-yl)benzyl)azetidine-3-carboxylic acid], the EC50 is reported as 970 nM and 400 nM and 440 nM and 421 nM.
In the case of CC(C)Cc1ccc2oc(-c3ccc(CN4CC(C(=O)O)C4)cc3)cc2c1 [Reference Compound 10, 1-((4-(5-isobutylbenzofuran-2-yl)phenyl)methyl)azetidine-3-carboxylic acid], the EC50 is reported as 270 nM and 490 nM and 383 nM.
